Assay [1] addresses T1, P[8]c M4(Ile173Val) VP8* (Rotavirus A, UniProt A0A0S0VKY7, I110V).
T1 sequence (A0A0S0VKY7 1-161 I110V): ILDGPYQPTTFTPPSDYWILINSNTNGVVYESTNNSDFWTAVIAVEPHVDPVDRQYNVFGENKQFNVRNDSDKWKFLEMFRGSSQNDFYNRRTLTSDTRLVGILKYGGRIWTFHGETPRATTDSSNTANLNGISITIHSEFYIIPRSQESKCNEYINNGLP
The assay can be described thus: SPR apparent affinity of VP8* for immobilized HBGAs. The format is binding, human rotavirus. Conditions: for Kd: PAA-biotin glycan immobilized on SA chip, VP8* as analyte, 10°C, ± standard deviation, read-out: Kda (apparent affinity constant). The source says: (§1) Selected residues in the GST::VP8* P[8] were replaced for alanine or valine according to the structural data of the LNB binding site. Four mutants (M1–M4) were constructed using a Quick-Change site-directed mutagenesis kit (Stratagene) and appropriate oligonucleotides (S5 Table), and the DNA changes were confirmed by DNA sequencing. Mutant M1, M2 and M3 contained changes in the codons for tryptophan 174, arginine 209 and glutamic 212 residues, respectively, that introduced an alanine at each position. Mutant M4 substituted isoleucine 173 by valine.
The affinity assays were based on SPR and performed in a Biacore T100 instrument (GE Healthcare). H1 PAA-biotin and LNB PAA-biotin were diluted to a concentration of 1 mg/ml in water and captured with streptavidin present in a SA sensor chip (GE Healthcare). H1 was immobilized in channel 2 (630 RU) of the sensor chip and LNB was immobilized in channel 4 (624 RU). The channels 1 and 3 were used as the reference surfaces for channels 2 and 4, respectively. The immobilization process was performed by conditioning the sensor chip surface with three consecutive 1-minute injections of 1 M NaCl 50 mM NaOH before biotinylated ligands were immobilized at a flow rate of 15 μl/min. The affinity assays of VP8* polypeptides to biotinylated sugars were performed at 10°C using 1X HBS-EP^+ buffer (0.01 M HEPES pH 7.4, 0.15 M NaCl, 3 mM EDTA, 0.005% Surfactant P20), a flow rate of 5 μl/min with 2700 seconds of contact time and a dissociation time of 1800 seconds. The regeneration step consisted in a wash step with 10 mM Glycine-HCl pH 2 for 20 seconds at the same flow rate. The assays were performed with purified VP8* at different concentrations (45; 137; 411; 1,234; 3,703; 11,111; 33,333; 100,000 and 200,000 nM). Each run included three blanks without sample. […] Since multivalent oligosaccharides are immobilized on a sensor chip surface, avidity and rebinding effects can take place and apparent affinity constants (Kda) are calculated with this experimental setup. […]

Assay [2] deals with VP8* from the lineage IV strain (P[8]LIV). Nature of the assay: SPR interaction of VP8* with immobilized HBGAs. The format is binding, human rotavirus. As for the experimental part: (§2) The affinity assays were based on SPR and performed in a Biacore T100 instrument (GE Healthcare). H1 PAA-biotin and LNB PAA-biotin were diluted to a concentration of 1 mg/ml in water and captured with streptavidin present in a SA sensor chip (GE Healthcare). H1 was immobilized in channel 2 (630 RU) of the sensor chip and LNB was immobilized in channel 4 (624 RU). The channels 1 and 3 were used as the reference surfaces for channels 2 and 4, respectively. The immobilization process was performed by conditioning the sensor chip surface with three consecutive 1-minute injections of 1 M NaCl 50 mM NaOH before biotinylated ligands were immobilized at a flow rate of 15 μl/min. The affinity assays of VP8* polypeptides to biotinylated sugars were performed at 10°C using 1X HBS-EP^+ buffer (0.01 M HEPES pH 7.4, 0.15 M NaCl, 3 mM EDTA, 0.005% Surfactant P20), a flow rate of 5 μl/min with 2700 seconds of contact time and a dissociation time of 1800 seconds. The regeneration step consisted in a wash step with 10 mM Glycine-HCl pH 2 for 20 seconds at the same flow rate. The assays were performed with purified VP8* at different concentrations (45; 137; 411; 1,234; 3,703; 11,111; 33,333; 100,000 and 200,000 nM). Each run included three blanks without sample. The affinity data were obtained after analysis of sensorgrams performed with the BIAevaluation 2.0 software (GE Healthcare). Since multivalent oligosaccharides are immobilized on a sensor chip surface, avidity and rebinding effects can take place and apparent affinity constants (Kda) are calculated with this experimental setup. Kda values were obtained from the steady-state kinetics experiment as the ligand concentration needed to achieve a half-maximum binding at equilibrium. The experiments were made in triplicate. Graphical representation of signal/concentration curves were plotted using GraphPad Prism 6 for MacOsX.

Assay [3] concerns the target VP8* from Rotarix strain (lineage I). Nature of the assay: SPR interaction of VP8* with immobilized HBGAs. The format is binding, human rotavirus. The protocol:
as §2

Assay [4] deals with VP8* P[4]. The assay can be described thus: ELISA-like binding assay to biotinylated HBGAs. The following applies: biotinylated PAA glycan 2 μg/ml, VP8* 10 μg/ml. More on the design: species or system human rotavirus. The source says:
(§3) A panel of biotinylated sugar antigens including Le^a, Le^b, Le^c (lacto-N-biose; LNB), H type-1, H type-2 and blood group A and B trisaccharides were purchased from Glyconz (Fig 1 and S1 Table). These glycans are biotinylated neoglyconjugates of a poly[N-(2-hydroxyethyl)acrylamide] (PAA) with a size from 30 to 50 KDa. This forms a flexible polymer ideal for a multivalent presentation of glycans. Immobilized streptavidin F96 black plates (Nunc) were coated with the biotinylated oligosaccharides (2 μg/ml) in milli-Q water and incubated during 1 hour at 37°C. After functionalization the plates were washed once with PBS containing 0.05% of Tween 20 (PBS-T) and the VP8* proteins were added (10 μg/ml) and incubated at 4°C overnight. After three washes with PBS-T, a rabbit polyclonal antibody anti GST (1:1,000) (Abcam) was added and the plates were incubated one hour at 37°C. Then, the plates were washed three times with PBS-T and incubated for 1 h at 37°C with 1:10,000 dilution of horseradish peroxidase (HRP)-conjugated goat anti-rabbit (Abcam). After three washes with PBS-T, the binding was detected using QuantaBlue reagent (ThermoFisher) kit, as recommended by the manufacturer. Fluorescence units were registered by a MultiScan microplate reader. All the binding assays were performed in triplicate.
Background: ELISA stands for enzyme-linked immunosorbent assay.

Assay [5] relates to VP8* P[6]. The assay can be described thus: ELISA-like binding assay to biotinylated HBGAs. More on the design: species or system human rotavirus. Conditions: biotinylated PAA glycan 2 μg/ml, VP8* 10 μg/ml.
Source text: as §3

Assay [6] deals with P[8]c VP8* mutant W174A (M1). Nature of the assay: SPR binding of VP8* mutant. More on the design: species or system human rotavirus.
Source text: as §1, §2

In assay [7] the test system is P[8]c VP8* mutant R209A (M2). Nature of the assay: SPR binding of VP8* mutant. More on the design: species or system human rotavirus.
Source text: as §1, §2

The subject of assay [8] is P[8]c VP8* mutant E212A (M3). Nature of the assay: SPR binding of VP8* mutant. More on the design: species or system human rotavirus.
Source text: as §1, §2
(In general: SPR reads the build-up and loss of mass on a sensor chip optically.)

Assay [9] deals with VP8* P[8]c binding to LNB. Nature of the assay: Binding blocking assay, immobilized LNB. The arrangement: species or system human rotavirus. Conditions: soluble sugar at 20 mM. The protocol: To confirm the binding of the VP8* from the P[8] genotype to the H type-1 precursor LNB, a blocking assay was performed using soluble LNB and its related disaccharide galacto-N-biose (Gal-β-1,3-GalNAc; GNB) produced and purified in our laboratory as previously described.
Streptavidin microtiter plates were coated with biotinylated H type-1 antigen or LNB at 2 μg/ml with water and incubated for 1 hour at 37°C, followed by an overnight incubation at 4°C. Blocking assays were performed in parallel, using glass tubes containing the P[8]c and P[8]Wa VP8* protein at their EC50 for each ligand and 20 mM of each of the soluble disaccharides (LNB and GNB) and monosaccharides (D-galactose, GlcNAc and GalNAc). A positive binding control without sugar was also included. The tubes containing the mixes of VP8* with sugars were maintained 1 hour at 37°C, followed by an overnight incubation at 4°C. The next day the coated streptavidin plates were washed with PBS-T, the VP8*-sugar solutions were added to the plates and incubated during 4 hours at 4°C. The plates were washed three times with PBS-T and detection of the interactions was performed as described above. The results are presented as the percentage (%) of binding of each condition compared to the binding of the positive binding control (without blocking sugar). All experiments were performed in triplicate.

Structures are written as SMILES.

2 compounds from article PMC6609034, “Unraveling the role of the secretor antigen in human rotavirus attachment to histo-blood group antigens” (PLoS Pathogens, 2019) can be followed below.

For `CC(=O)NC1C(O)OC(CO)C(O)C1OC1OC(CO)C(O)C(O)C1OC1OC(C)C(O)C(O)C1O` (stereo not drawn) [H1, Fuc-α1,2-Gal-β1,3-GlcNAc], the Kd in assay [1] came to 39 µM. For the same compound, the “Kda of VP8 I173V compared to the wild-type protein” value in [1] (higher than wild-type P[8]c) was 1.4 fold. Further, the “interaction by SPR” value in assay [2] and in assay [3] was “too low to be determined” each time. Also, the “binding (ELISA-like)” value in [4] and in assay [5] was “recognized” throughout. The “binding by SPR” value in assay [6], in assay [7] and in assay [8] was “lost their ability to interact” each time.

With `CC(=O)NC1C(O)OC(CO)C(O)C1OC1OC(CO)C(O)C(O)C1O` (stereo not drawn) [LNB, Gal-β1,3-GlcNAc], the “reduction of the binding of VP8* P[8]c to LNB” value in assay [9] came to 52.2%. Besides, the Kd in assay [1] stood at 49.4 µM. For the same compound, the “interaction by SPR” value in assay [2] and in [3] was “too low to be determined” throughout. Further, the “binding by SPR” value in [6], in assay [7] and in assay [8] was “lost their ability to interact” throughout.
